Experimental data: patent US20180251431A1 (VERTEX PHARMACEUTICALS INCORPORATED, priority 2016, published 2018)

How the values were obtained:
[1] = system: healthy human fibroblasts; assay: Reduction in C26:0 LPC in healthy human fibroblasts in vitro; type: cell-based; settings: Healthy 2 Fibroblast, half maximal reduction in C26:0 LPC, each number a separate measurement
human microglia = assay: Reduction in C26:0 LPC in human microglia in vitro; type: cell-based; settings: half maximal reduction in C26:0 LPC
Method: Lysophosphatidylcholine (LPC) VLCFA were generated from straight chain VLCFA (SC-VLCFA) and were used clinically for newborn screening (Vogel et al., Mol. Genet. Metab. (2015) 114(4):599-603). In vitro efficacy studies were performed by measuring LPC VLCFA level (measured as LPC synthesis) in various cell lines, specifically in 1) human HEK cells, 2) patient derived cells, and 3) human microglia, which are disease relevant CNS cells. Compound 87's dose response relationships and IC50 values were measured in HEK cells, primary patient fibroblasts, immortalized patient lymphocytes, and a human microglial cell line. […]
Immortalized human microglia (Applied Biological Materials (ABM); catalog #T0251; Richmond BC, Canada) were grown and sub-cultured following the subculturing protocols from ABM except DMEM (high glucose, pyruvate; LifeTech Cat. No. 11995) was used instead of Prigrow III medium and standard tissue culture grade flasks and plates were used. […] An equal volume of media was used to neutralize the detachment media and the cells were collected and counted. […]
Upon the completion of the compound treatment, the media (with compound treatment) was aspirated from the well. […] The plate was sealed with a plate tape and put at −80° C. for further VLCFA extraction and VLCFA quantitation on LC-MS, as described below.
VLCFA Extraction and Quantitation on LCMS: […]

[2] = Metabolic intrinsic clearance in monkey hepatocytes; type: in vitro ADME, cynomolgus monkey; settings: cryopreserved hepatocytes in suspension, pH 7.5, 0.5 million cells/mL, incubation for 4 hours
Method: (§1) The metabolic intrinsic clearance (CLint) of Compound 87 was determined in human, monkey, dog, rat, and mouse hepatocytes. Cryopreserved human hepatocytes (Lot Hue50c), monkey hepatocytes (cynomolgus; Lot Cy328), dog hepatocytes (beagle, Lot Db235), rat hepatocytes (Sprague Dawley; NNH), and mouse hepatocytes (CD-1; Lot Mc522) were obtained from ThermoFisher (Paisley, UK). In separate experiments, compound 87 (1 μM) was incubated with hepatocytes from each species (0.5 million cells/mL, suspension) in Dulbecco's Modified Eagle's Medium (DMEM) supplemented with 4-(2-Hydroxyethyl)piperazine-1-ethanesulfonic acid (HEPES, 9 mM) and fructose (2.2 mM) (pH 7.5). Samples were quenched with acetonitrile and analyzed by LC-MS/MS. The mean CLint for Compound 87 in human, monkey, dog, rat, and mouse hepatocytes after incubation for 4 hours was determined to be ≤2.5, ≤2.5, 7.2, 23.6 and 10.7 μL/min/million cells. Based on these date, Compound 87 was low to moderately metabolized in hepatocytes in mouse, rat, dog, monkey, and human, and the rank order of stability at […] was approximately human>monkey>dog>mouse>rat. […] The metabolic stability of Compound 87 was not expected.

[3] = Metabolic intrinsic clearance in rat hepatocytes; type: in vitro ADME; settings: Sprague Dawley, cryopreserved hepatocytes in suspension, pH 7.5, 0.5 million cells/mL, incubation for 4 hours
Method: as §1

IC50 (human microglia): 11 nM
hepatocyte CLint at 1 μM [2]: ≤ 2.5 µL/min/1e6 cells
hepatocyte CLint at 1 μM [3]: 23.6 µL/min/1e6 cells
Structure (SMILES): O=C(Nc1ccn(-c2ccnc(F)c2)n1)C1(c2ccccc2F)CC1 [Compound 87, 1-(2-fluorophenyl)-N-[1-(2-fluoro-4-pyridyl)pyrazol-3-yl]cyclopropanecarboxamide]
IC50 [1]: 6 nM
IC50 ([1]; Homo sapiens, Fibroblast): 9 nM
